Measurements taken from PubChem BioAssay (NCI).
“And” between values parts separate entries of the source, which are not always exact repeats. Identical values can stand only once.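 Values below derive from 48-hour exposures of cells grown in 96-well plates, with endpoints linearly interpolated between the two concentrations bracketing the appropriate inhibition level. Abbreviation: GI50, concentration required for 50% inhibition of growth. TGI: concentration producing complete growth inhibition.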

Assays:
Experiment in all cases: inhibition of tumour cell growth, NCI panel, 48 h
DLD-1 colon = test system: DLD-1 colon
LXFL 529 NSCLC = test system: LXFL 529 NSCLC
DMS 114 small cell lung = test system: DMS 114 small cell lung
DMS 273 small cell lung = test system: DMS 273 small cell lung
A498 renal = test system: A498 renal
KM20L2 colon = test system: KM20L2 colon
XF 498 CNS = test system: XF 498 CNS
MDA-N = test system: MDA-N
T-47D breast = test system: T-47D breast
SR leukemia = test system: SR leukemia
PC-3 prostate = test system: PC-3 prostate
786-0 renal = test system: 786-0 renal
NCI/ADR-RES ovarian = test system: NCI/ADR-RES ovarian
HS 578T breast = test system: HS 578T breast
MCF7 breast = test system: MCF7 breast
MDA-MB-435 = test system: MDA-MB-435
HOP-92 NSCLC = test system: HOP-92 NSCLC
BT-549 breast = test system: BT-549 breast

Row | SMILES | TGI (DLD-1 colon) [µM] | TGI (LXFL 529 NSCLC) [µM] | TGI (DMS 114 small cell lung) [µM] | TGI (DMS 273 small cell lung) [µM] | TGI (A498 renal) | TGI (KM20L2 colon) [µM] | TGI (XF 498 CNS) [µM] | TGI (MDA-N) [µM] | TGI (T-47D breast) [µM] | TGI (SR leukemia) [µM] | TGI (PC-3 prostate) [µM] | TGI (786-0 renal) [µM] | TGI (NCI/ADR-RES ovarian) | TGI (HS 578T breast) [µM] | TGI (MCF7 breast) | TGI (MDA-MB-435) [µM] | TGI (HOP-92 NSCLC) | TGI (BT-549 breast) [µM] | GI50 (NCI/ADR-RES ovarian) [µM] | GI50 (A498 renal)
1 | Cc1[nH]nc(N)c1C(N)=O | > 100 | > 100 | > 100 | > 100 | > 100 µM | > 100 | > 100 | – | – | – | – | – | – | – | – | – | – | – | – | –
2 | CC(=O)NC(CCC(=O)C=[N+]=N)C(=O)O (stereo not given) | – | – | – | – | > 100 µM | – | – | > 100 | > 100 | > 100 | > 100 | > 100 | > 100 µM | > 100 | > 100 µM | > 100 | > 100 µM | > 100 | – | –
3 | OC1CCOc2ccccc21 (stereo not given) | > 100 | > 100 | > 100 | > 100 | – | > 100 | > 100 | – | – | > 100 | – | – | – | – | – | – | – | – | – | –
4 | CCCC(=O)NC1CCc2cc(OC)c(OC)c(OC)c2-c2ccc(OC)c(=O)cc21 (stereo not given) | – | – | – | – | – | – | – | – | – | – | > 100 | > 100 | > 100 µM | – | > 100 µM | – | – | > 100 | 3.2 | –
5 | CCOC(=O)c1c(Cl)nc2ccccc2c1N=[N+]=[N-] | – | – | – | – | > 100 µM | – | – | 44.2 | 45.7 | > 100 | 68.5 | – | – | 77.8 | – | 47.1 | 59.5 µM | 30.7 | – | –
6 | S=C1CC(c2ccccc2)Sc2ccccc2N1 (stereo not given) | – | – | – | – | – | – | – | > 100 | > 100 | > 100 | > 100 | – | > 100 µM | > 100 | > 100 µM | > 100 | – | > 100 | – | –
7 | O=S(=O)(O)c1ccc(N=Nc2c(O)ccc3cc(Br)ccc23)cc1 | – | – | – | – | > 100 µM | – | – | > 100 | > 100 | > 100 | > 100 | > 100 | > 100 µM | > 100 | – | > 100 | > 100 µM | > 100 | – | –
8 | CC1CCC2(C(=O)O)CCC3(C)C(=CCC4C5(C)CCC(O)C(C)(C)C5CCC43C)C2C1C (stereo not given) | 17 | – | 21.5 | 22 | 23.3 µM and 45.3 µM | 17.5 | 11.7 | 28.2 | 29.3 | 59.8 | 29.3 | > 100 | 23.7 µM and 40.7 µM | 25.2 | 25.6 µM and 43.7 µM | 75.1 | 21.1 µM and 42.6 µM | 40.5 | – | 7.07 µM and 22.6 µM
9 | CNC(=O)SCC(N)C(=O)O (stereo not given) | > 100 | – | > 100 | > 100 | > 100 µM | > 100 | > 100 | – | – | – | – | – | > 100 µM | – | > 100 µM | – | > 100 µM | – | – | –
10 | CC1CC[C@@]2(OC1)OC1CC3C4CCC5C[C@@H](OC6OC(CO)C(OC7OC(CO)C(O)C(OC8OC(CO)C(O)C(OC9OC(CO)C(O)C(O)C9O)C8O)C7OC7OC(CO)C(O)C(O)C7O)C(O)C6O)[C@H](O)C[C@]5(C)C4CC[C@]3(C)C1[C@@H]2C (stereo not given in full) | – | – | – | – | > 80.5 µM | – | – | > 80.5 | > 80.5 | – | > 80.5 | > 80.5 | > 80.5 µM | > 80.5 | > 80.5 µM | > 80.5 | > 80.5 µM | > 80.5 | – | –
11 | C/C=C/C1=CC(=O)C(O)C1O (stereo not given) | 122 | – | 72.5 | 98.9 | 16.7 µM | > 80.9 | 45.6 | – | – | – | – | – | 66.1 µM | – | 122 µM | – | 66 µM | – | – | –
12 | COC1C=COC2(C)Oc3c(C)c(O)c4c(O)c(c(/C=N/N5CCN(N)CC5)c(O)c4c3C2=O)NC(=O)C(C)=CC=CC(C)C(O)C(C)C(O)C(C)C(OC(C)=O)C1C (stereo not given) | > 100 | > 100 | > 100 | > 100 | > 100 µM | > 100 | – | – | – | > 100 | – | > 100 | – | – | – | – | > 100 µM | – | – | –
13 | CC1(C)Cc2c(C#N)c(N)c3c(c2CO1)C(=O)OC3=O | – | > 100 | > 100 | > 100 | – | > 100 | > 100 | – | – | > 100 | – | – | – | – | – | – | – | – | – | –
14 | CCC(=O)c1ccc2[nH]c3c(C)c4c(=O)cc(C)[nH]c4c(C)c3c2c1 | – | – | – | – | > 100 µM | – | – | > 100 | > 100 | > 100 | > 100 | > 100 | > 100 µM | > 100 | > 100 µM | > 100 | 82.3 µM | > 100 | – | –
15 | CC(=O)NC(c1nc2cc(C)c(C)cc2[nH]1)c1nc2cc(C)c(C)cc2[nH]1 | – | – | – | – | 35.4 µM | – | – | 48.6 | > 100 | – | 94.7 | – | 89.2 µM | 79.2 | > 100 µM | 42.3 | 43.3 µM | 61.6 | – | –
